Results: ChEMBL document CHEMBL3885861, “Open TG-GATES”

Species: Rattus norvegicus
Test: Open TG-GATES - Regimen: Single
Assay type: toxicity, organism-based, Sprague-Dawley
Set-up: regimen Single, gender Male, age 6 weeks
Conditions: in vivo, po, 3 mg/kg, route gavage, dose level Low; for APTT / Bas / Eos / Fbg / Hb / Ht / Lym / MCH / MCHC / MCV / Mono / Neu / PT / Plat / RBC / Ret / WBC: tissue Blood; for KIDNEY_L / KIDNEY_R / KIDNEY_TOTAL: tissue Kidney; for LIVER: tissue Liver; for A/G / ALP / ALT / AST / BUN / CRE / Ca / Cl / DBIL / GLC / IP / K / LDH / Na / PL / RALB / TBIL / TC / TG / TP / gamma-GTP: tissue Plasma

For `CN(C)CCC(c1ccc(Cl)cc1)c1ccccn1` (configuration not stated) [CHLORPHENIRAMINE], the TERMINAL_BW (3 h) was 195.7 g, the APTT (3 h) was 18 s and the Bas (3 h) was 0%. For the same molecule, the Eos (3 h) was 0.6%, the Fbg (3 h) was 281.4 mg/dL and the Hb (3 h) was 13.4 g/dL. For the same molecule, the Ht (3 h) was 41.7%, the Lym (3 h) was 72.6% and the MCH (3 h) was 20.9 pg. The MCHC (3 h) was 32.2%, the MCV (3 h) was 64.9 fL and the Mono (3 h) was 3.4%. It also gave a Neu (3 h) of 22.4%, a PT (3 h) of 15 s and a Plat (3 h) of 124.5 x10_4/uL. It also gave an RBC (3 h) of 642.6 x10_4/ul, a Ret (3 h) of 8.9% and a WBC (3 h) of 84.7 x10_2/uL. The KIDNEY_L (3 h) was 0.9 g, the KIDNEY_R (3 h) was 0.8 g and the KIDNEY_TOTAL (3 h) was 1.7 g. For the same molecule, the LIVER (3 h) was 8.5 g, the A/G (3 h) was 0.9 and the ALP (3 h) was 1618.2 IU/L. For the same molecule, the ALT (3 h) was 47 IU/L, the AST (3 h) was 76 IU/L and the BUN (3 h) was 9.2 mg/dL. It also gave a CRE (3 h) of 0.2 mg/dL, a Ca (3 h) of 10.9 mg/dL and a Cl (3 h) of 106 meq/L. For the same molecule, the DBIL (3 h) was 0.01 mg/dL, the GLC (3 h) was 179.8 mg/dL and the IP (3 h) was 10.4 mg/dL. It also gave a K (3 h) of 4.1 meq/L, an LDH (3 h) of 195 IU/L and a Na (3 h) of 143.6 meq/L. For the same molecule, the PL (3 h) was 140.2 mg/dL, the RALB (3 h) was 2.5 g/dL and the TBIL (3 h) was 0.048 mg/dL. The TC (3 h) was 77.8 mg/dL, the TG (3 h) was 53.4 mg/dL and the TP (3 h) was 5.5 g/dL. The gamma-GTP (3 h) was 2 IU/L, the TERMINAL_BW (6 h) was 194.4 g and the APTT (6 h) was 20 s. For the same molecule, the Bas (6 h) was 0.4%, the Eos (6 h) was 1% and the Fbg (6 h) was 296.2 mg/dL. For the same molecule, the Hb (6 h) was 13.2 g/dL, the Ht (6 h) was 41.3% and the Lym (6 h) was 75.8%. For the same molecule, the MCH (6 h) was 20.8 pg, the MCHC (6 h) was 31.9% and the MCV (6 h) was 65.1 fL. For the same molecule, the Mono (6 h) was 3.4%, the Neu (6 h) was 19.2% and the PT (6 h) was 14.9 s. For the same molecule, the Plat (6 h) was 119.3 x10_4/uL, the RBC (6 h) was 633.8 x10_4/ul and the Ret (6 h) was 9.5%. The WBC (6 h) was 83.2 x10_2/uL, the KIDNEY_L (6 h) was 0.9 g and the KIDNEY_R (6 h) was 0.9 g. It also gave a KIDNEY_TOTAL (6 h) of 1.8 g, an LIVER (6 h) of 8.1 g and an A/G (6 h) of 0.9. The ALP (6 h) was 1343.4 IU/L, the ALT (6 h) was 41.4 IU/L and the AST (6 h) was 71.2 IU/L. For the same molecule, the BUN (6 h) was 7.8 mg/dL, the CRE (6 h) was 0.2 mg/dL and the Ca (6 h) was 10.5 mg/dL. The Cl (6 h) was 108.4 meq/L, the DBIL (6 h) was 0.004 mg/dL and the GLC (6 h) was 176 mg/dL. The IP (6 h) was 10.4 mg/dL, the K (6 h) was 4.1 meq/L and the LDH (6 h) was 200 IU/L. It also gave a Na (6 h) of 144.4 meq/L, a PL (6 h) of 150.2 mg/dL and an RALB (6 h) of 2.5 g/dL. The TBIL (6 h) was 0.052 mg/dL, the TC (6 h) was 89.6 mg/dL and the TG (6 h) was 42.6 mg/dL. The TP (6 h) was 5.4 g/dL, the gamma-GTP (6 h) was 1.4 IU/L and the TERMINAL_BW (9 h) was 194.2 g. It also gave an APTT (9 h) of 17.4 s, a Bas (9 h) of 0% and an Eos (9 h) of 1%. For the same molecule, the Fbg (9 h) was 288.2 mg/dL, the Hb (9 h) was 12.8 g/dL and the Ht (9 h) was 39.6%. The Lym (9 h) was 77.8%, the MCH (9 h) was 20.9 pg and the MCHC (9 h) was 32.4%. For the same molecule, the MCV (9 h) was 64.7 fL, the Mono (9 h) was 2.8% and the Neu (9 h) was 18%. For the same molecule, the PT (9 h) was 14.8 s, the Plat (9 h) was 119.5 x10_4/uL and the RBC (9 h) was 612.4 x10_4/ul. For the same molecule, the Ret (9 h) was 9.2%, the WBC (9 h) was 71.4 x10_2/uL and the KIDNEY_L (9 h) was 0.9 g. The KIDNEY_R (9 h) was 0.9 g, the KIDNEY_TOTAL (9 h) was 1.8 g and the LIVER (9 h) was 7.7 g. The A/G (9 h) was 0.9, the ALP (9 h) was 1240.8 IU/L and the ALT (9 h) was 40.6 IU/L. For the same molecule, the AST (9 h) was 71 IU/L, the BUN (9 h) was 8.2 mg/dL and the CRE (9 h) was 0.1 mg/dL. For the same molecule, the Ca (9 h) was 10.3 mg/dL, the Cl (9 h) was 105.8 meq/L and the DBIL (9 h) was 0.006 mg/dL. For the same molecule, the GLC (9 h) was 165.2 mg/dL, the IP (9 h) was 10.2 mg/dL and the K (9 h) was 3.9 meq/L. It also gave an LDH (9 h) of 139 IU/L, a Na (9 h) of 142.8 meq/L and a PL (9 h) of 143 mg/dL. It also gave an RALB (9 h) of 2.5 g/dL, a TBIL (9 h) of 0.046 mg/dL and a TC (9 h) of 85.4 mg/dL. The TG (9 h) was 37.2 mg/dL, the TP (9 h) was 5.3 g/dL and the gamma-GTP (9 h) was 1 IU/L. It also gave a TERMINAL_BW (24 h) of 214.2 g, an APTT (24 h) of 15.8 s and a Bas (24 h) of 0%. It also gave an Eos (24 h) of 1%, a Fbg (24 h) of 291.4 mg/dL and a Hb (24 h) of 12.9 g/dL. It also gave a Ht (24 h) of 40.3%, a Lym (24 h) of 78.2% and an MCH (24 h) of 20.4 pg. For the same molecule, the MCHC (24 h) was 32.1%, the MCV (24 h) was 63.5 fL and the Mono (24 h) was 3%. The Neu (24 h) was 16.4%, the PT (24 h) was 14.6 s and the Plat (24 h) was 123.3 x10_4/uL. For the same molecule, the RBC (24 h) was 634.4 x10_4/ul, the Ret (24 h) was 7.9% and the WBC (24 h) was 88.7 x10_2/uL. For the same molecule, the KIDNEY_L (24 h) was 0.9 g, the KIDNEY_R (24 h) was 0.9 g and the KIDNEY_TOTAL (24 h) was 1.8 g. It also gave an LIVER (24 h) of 9.9 g, an A/G (24 h) of 0.9 and an ALP (24 h) of 1572.2 IU/L. It also gave an ALT (24 h) of 47.4 IU/L, an AST (24 h) of 72.6 IU/L and a BUN (24 h) of 14.4 mg/dL. The CRE (24 h) was 0.2 mg/dL, the Ca (24 h) was 11.2 mg/dL and the Cl (24 h) was 105.6 meq/L. The DBIL (24 h) was 0.016 mg/dL, the GLC (24 h) was 188.6 mg/dL and the IP (24 h) was 8.9 mg/dL. It also gave a K (24 h) of 4.5 meq/L, an LDH (24 h) of 131.6 IU/L and a Na (24 h) of 142.8 meq/L. The PL (24 h) was 150.4 mg/dL, the RALB (24 h) was 2.6 g/dL and the TBIL (24 h) was 0.05 mg/dL. The TC (24 h) was 81.6 mg/dL, the TG (24 h) was 80.8 mg/dL and the TP (24 h) was 5.7 g/dL. For the same molecule, the gamma-GTP (24 h) was 1 IU/L.
